Consider 19 compounds from article PMC8906008 (Antiviral Research, 2022).

One experiment deals with SARS-CoV-2 nsp5. The conditions noted are these: read-out: reported in vitro IC50; ref Ma et al., 2021; cited from earlier work.
Experiment [1] concerns the target SARS-CoV-2 nsp5 (nsp4-5-6 WT) (Severe acute respiratory syndrome coronavirus 2, UniProt P0DTD1). Briefly: cell-based. The following applies: for inhibition at 10 µM: HEK-293T.
In experiment [2] the target is purified SARS-CoV-2 nsp5 protein (Severe acute respiratory syndrome coronavirus 2, UniProt P0DTD1). As to the kind of experiment: biochemical.
A further experiment has as its system SARS-CoV-2. As to the kind of experiment: microbe, parasite or virus in culture. The format is cell-based.
Where [3] appears, read: read-out: Primary screen nsp5-WT RLU (%).
Where [4] appears, read: read-out: Secondary screen nsp5-WT RLU (%).

Where two headings read alike, the source gives them in different places.

For orientation: IC50 means the point on the concentration scale where inhibition reaches its midpoint. `CC(C)(C)NC(=O)N[C@H](C(=O)N1C[C@H]2[C@@H]([C@H]1C(=O)NC(CC1CCC1)C(=O)C(N)=O)C2(C)C)C(C)(C)C` (stereo partly drawn) [Boceprevir]: the IC50 in the experiment on SARS-CoV-2 nsp5 is […].

For the compound `CCCC(NC(=O)C(CC(C)C)NC(=O)OCc1ccccc1)C(=O)C(=O)NCc1ccccn1` (stereo not drawn) [Calpain Inhibitor XII], the IC50 with SARS-CoV-2 nsp5 is […].

For `C1=C/COCc2cc(ccc2OCCN2CCCC2)Nc2nccc(n2)-c2cccc(c2)COC/1` [Compound #9, Pacritinib (SB1518)], the inhibition at 10 µM in experiment [1] (setting [3]) amounted to 28.2%; in experiment [1] (setting [4]), 15.3 ± 1.3%.

Consider `CCOC(=O)C1=C(C)NC(C)=C(C(=O)OCC)C1c1ccccc1/C=C/C(=O)OC(C)(C)C` [compound 3, Lacidipine], for which the inhibition at 10 µM in experiment [1] (setting [3]) turned out to be 10.2%; in experiment [1] (setting [4]), 8.9 ± 0.7%.

Take `CC[C@@H]1C(=O)N(C)c2cnc(Nc3ccc(C(=O)N[C@H]4CC[C@H](N5CCN(CC6CC6)CC5)CC4)cc3OC)nc2N1C(C)C` [compound 4, Volasertib (BI6727)]: the inhibition at 10 µM was 83.9% in experiment [1] (setting [3]) and 114 ± 8.9% in experiment [1] (setting [4]).

What is called EC50 is the concentration at which the effect is half-maximal. Regarding `COc1cc(NC(=O)Nc2cccc(CNC(=O)O[C@H]3CCOC3)c2)ccc1-c1cnco1` [compound 5, Merimepodib], the IC50 in experiment [2] was more than 600 µM; in experiment [1], less than 50 µM. The “inhibition of nsp5 protease activity in vitro” value in experiment [2] is “does not efficiently inhibit”. Moreover, the inhibition at 10 µM turned out to be 46.1% in experiment [1] (setting [3]) and 39% in experiment [1] (setting [4]). Also, in the experiment on SARS-CoV-2 (EC50 to CC50 ratio, A549-ACE2 cells), the “SI (selectivity index)” value was 1.5. In addition, in the experiment on SARS-CoV-2 (Severe acute respiratory syndrome coronavirus 2, A549-ACE2, read-out: EC50 inhibition of SARS-CoV-2 replication), the EC50 is 21 µM.

With `Cc1cnc(Nc2ccc(OCCN3CCCC3)cc2)nc1Nc1cccc(S(=O)(=O)NC(C)(C)C)c1` [compound 6, Fedratinib (SAR302503)], the inhibition at 10 µM in experiment [1] (setting [3]) was determined as 32.7%; in experiment [1] (setting [4]), 57.6 ± 8.6%.

Regarding `Cc1sc2c(c1C)C(c1ccc(Cl)cc1)=N[C@@H](CC(=O)Nc1ccc(O)cc1)c1nnc(C)n1-2` [compound 7, OTX015], the figures for the inhibition at 10 µM in experiment [1] (setting [3]) and in experiment [1] (setting [4]) were 31.8% and 31.5 ± 11%, respectively.

For the compound `Cc1cnc(Nc2ccc(N3CCN(C)CC3)cc2)nc1Nc1cccc(S(=O)(=O)NC(C)(C)C)c1` [compound 8, TG101209], in experiment [1], the “Primary screen nsp5-WT RLU (%)” value was 30.0% and the “Secondary screen nsp5-WT RLU (%)” value was 34.9 ± 4.0%.

Turning to `O=C(Nc1c[nH]nc1-c1nc2ccc(CN3CCOCC3)cc2[nH]1)NC1CC1` [compound 10, AT9283], the results for the inhibition at 10 µM in experiment [1] (setting [3]) and in experiment [1] (setting [4]) were 24% and 14.7 ± 0.8%, respectively.

For the compound `COCCOc1ccc2c(c1)ncn2-c1ccc2cccc(N3CCC(N)CC3)c2n1` [compound 12, CP 673451], the inhibition at 10 µM in experiment [1] (setting [3]) was determined as 19.4%; in experiment [1] (setting [4]) it was 13.9 ± 0.9%.

With `CNCc1ccc(C)c(NC(=O)c2ccc(Nc3nc(-c4ccccc4)c4ccccc4n3)cc2)c1` [compound 16, BMS-833923 (XL139)], the inhibition at 10 µM in experiment [1] (setting [3]) is 16.4%; in experiment [1] (setting [4]) it was 16.2 ± 2.1%.

Consider `CC(C)(C)c1cnc(CSc2cnc(NC(=O)C3CCNCC3)s2)o1` [compound 17, SNS-032 (BMS-387032)], for which the inhibition at 10 µM in experiment [1] (setting [3]) stood at 15.7%; in experiment [1] (setting [4]), 10.7 ± 1.1%.

Turning to `C=CC(=O)Nc1cccc(Nc2nc(Nc3ccc(N4CCN(C(C)=O)CC4)cc3OC)ncc2C(F)(F)F)c1` [compound 20, Rociletinib (CO-1686. AVL-301)], the inhibition at 10 µM in experiment [1] (setting [3]) was 13.3%; in experiment [1] (setting [4]) it was 9.7 ± 1.9%.

As for `Cc1nc(Nc2ncc(C(=O)Nc3c(C)cccc3Cl)s2)cc(N2CCN(CCO)CC2)n1` [compound 21, Dasatinib (BMS-354825)], the inhibition at 10 µM in experiment [1] (setting [3]) amounted to 11.6%; in experiment [1] (setting [4]), 10.7 ± 1.7%.

As to `C=CC(=O)Nc1cc(Nc2nccc(-c3cn(C)c4ccccc34)n2)c(OC)cc1N(C)CCN(C)C` [compound 23, Osimertinib (AZD9291)], in experiment [1], the “Primary screen nsp5-WT RLU (%)” value turned out to be 10.1% and the “Secondary screen nsp5-WT RLU (%)” value was determined as 8.3 ± 2.3%.

For `O=C(NC(Cc1cc(=O)[nH]c2ccccc12)C(=O)O)c1ccc(Cl)cc1` (stereo not drawn) [compound 43, Rebamipide], the inhibition at 10 µM in experiment [1] (setting [4]) is -1.5 ± 0.5%.

Regarding `CC(C)(C(=O)c1cccnc1)c1cccnc1` [compound 44, Metyrapone], in experiment [1] (setting [4]), the inhibition at 10 µM is -1.4 ± 0.2%.

On to UNC2881 [compound 1], for which, in experiment [1], the “Primary screen nsp5-WT RLU (%)” value worked out at 29.5% and the “Secondary screen nsp5-WT RLU (%)” value came out at 18.2 ± 0.5%.
